Assay results published in paper PMC8938411, “Novel functional insights into a modified sugar-binding protein from Synechococcus MITS9220” (Scientific Reports, 2022).
pKd: −log10 of the molar value.

Target: T1, MsBP (modified sugar-binding protein, MITS9220_00117), zinc-bound Zn-MsBP
T1 construct: Tat signal peptide removed, N-terminal hexahistidine tag with thrombin cleavage site (pET15-b)
Test: ITC of purified MsBP pre-incubated with Zn2+ ([…]x molar excess); supported by DSF (TM […] °C with Zn and FBP)
Design: species or system Synechococcus sp. MIT S9220

pKd: 5.24
SMILES: O=P(O)(O)OC[C@H]1OC(O)(COP(=O)(O)O)[C@@H](O)[C@@H]1O (stereo partly shown) [FBP, fructose-1,6-bisphosphate]
